Tests used:
rat [1] = settings: Multigenerational reproductive toxicity study, wistar, Oral, Feed, dose end: 2 generation
rat [2] = settings: Multigenerational reproductive toxicity study, wistar, Oral, Feed, dose end: 2 generation; remark: listed apart in the source
dog = settings: Chronic toxicity; beagle; Oral; Capsule; dose end: 52 week; group: systemic; systemic / in life observation / body weight / body weight gain
rat [3] = settings: Multigenerational reproductive toxicity study, long evans, Oral, Feed, dose end: 2 generation
rat [4] = settings: Prenatal developmental toxicity study, sprague dawley, Oral, Gavage/Intubation, dose end: 15 GD, group: maternal
rat [5] = settings: Combined chronic toxicity/carcinogenicity, fischer, Dermal, Topical, dose end: 2 year, group: systemic
mouse [6] = settings: Carcinogenicity; b6c3f1; Dermal; Topical; dose end: 2 year; group: systemic; systemic / pathology microscopic / skin / hyperplasia
rat [7] = settings: Subchronic oral toxicity in rodents, fischer, Dermal, Topical, dose end: 14 week, group: systemic
mouse [8] = settings: Subchronic oral toxicity in rodents, b6c3f1, Dermal, Topical, dose end: 14 week, group: systemic
mouse [9] = settings: Subchronic oral toxicity in rodents, b6c3f1, Gavage/Intubation, dose end: 14 week, group: systemic
rat [10] = settings: Carcinogenicity, fischer, Oral, Gavage/Intubation, dose end: 104 week, group: systemic
mouse [11] = settings: Carcinogenicity, b6c3f1, Oral, Gavage/Intubation, dose end: 105 week, group: systemic
rat [12] = settings: Subchronic oral toxicity in rodents, fischer, Gavage/Intubation, dose end: 14 week, group: systemic
[13] = group: offspring, systemic / in life observation / clinical signs / body cold to touch + systemic / in life observation / clinical signs / emaciation + …
[14] = group: parental, systemic / in life observation / body weight / body weight + systemic / in life observation / body weight / body weight gain + systemic / …
[15] = group: reproductive, reproductive / offspring survival early / litter size / litter size
[16] = group: offspring, systemic / in life observation / body weight / offspring (pup) weight
[17] = group: offspring, systemic / in life observation / body weight / offspring (pup) weight + developmental / offspring survival late / lactation index / …
[18] = group: parental, systemic / in life observation / body weight / body weight + systemic / in life observation / body weight / body weight gain
[19] = group: offspring, systemic / in life observation / body weight / offspring (pup) weight + developmental / offspring survival late / viability index / …
[20] = systemic / in life observation / body weight / body weight gain + systemic / in life observation / food consumption / food consumption + …
[21] = systemic / pathology microscopic / skin / hyperplasia
[22] = systemic / in life observation / clinical signs / skin discoloration + systemic / organ weight / liver / absolute + systemic / organ weight…
[23] = systemic / organ weight / liver / absolute + systemic / organ weight / liver / relative to body weight
[24] = systemic / pathology microscopic / liver / basophilic focus + systemic / pathology microscopic / liver / fatty change + systemic / pathology…
[25] = systemic / pathology microscopic / kidney / glomerulonephropathy + systemic / pathology microscopic / liver / [other] + systemic / pathology…
[26] = systemic / pathology microscopic / liver / clear cell focus + systemic / pathology microscopic / nose / degeneration + systemic / pathology …
[27] = systemic / organ weight / kidney / relative to body weight
[28] = systemic / organ weight / kidney / relative to body weight + systemic / clinical chemistry / alanine aminotransferase (alt/sgpt) / alanine …

Cc1ccc(N(SC(F)(Cl)Cl)S(=O)(=O)N(C)C)cc1 [Tolylfluanid]
LEL (rat [1]; [13]): 57.5 mg/kg/day | LOAEL (rat [1]; [13]): 57.5 mg/kg/day | NEL (rat [1]; [13]): 7.9 mg/kg/day | NOAEL (rat [1]; [13]): 7.9 mg/kg/day | LEL (rat [1]; [14]): 75.2 mg/kg/day | LOAEL (rat [1]; [14]): 75.2 mg/kg/day | NEL (rat [1]; [14]): 9.5 mg/kg/day | NOAEL (rat [1]; [14]): 9.5 mg/kg/day | LEL (rat [1]; [15]): 70.4 mg/kg/day | LOAEL (rat [1]; [15]): 70.4 mg/kg/day | NEL (rat [1]; [15]): 9.1 mg/kg/day | NOAEL (rat [1]; [15]): 9.1 mg/kg/day | LEL (rat [2]; [16]): 83.4 mg/kg/day | LOAEL (rat [2]; [16]): 83.4 mg/kg/day | NEL (rat [2]; [17]): 20.1 mg/kg/day | NOAEL (rat [2]; [17]): 20.1 mg/kg/day | LEL (rat [2]; [18]): 83.4 mg/kg/day | LOAEL (rat [2]; [18]): 83.4 mg/kg/day | NEL (rat [2]; [14]): 20.1 mg/kg/day | NOAEL (rat [2]; [14]): 20.1 mg/kg/day | LEL (rat [2]; [15]): 336 mg/kg/day | LOAEL (rat [2]; [15]): > 336 mg/kg/day | NEL (rat [2]; [15]): 83.4 mg/kg/day | NOAEL (rat [2]; [15]): ≥ 336 mg/kg/day | LEL (dog): 62.5 mg/kg/day | LOAEL (dog): 62.5 mg/kg/day | LOAEL (rat [3]; group: offspring, systemic / in life observation / body weight / offspring (pup) weight + developmental / offspring survival late / [other] / [other]): 375 mg/kg/day | LEL (rat [3]; group: offspring, systemic / in life observation / body weight / offspring (pup) weight + developmental / offspring survival late / [other] / [other] + …): 375 mg/kg/day | NEL (rat [3]; [19]): 75 mg/kg/day | NOAEL (rat [3]; [19]): 75 mg/kg/day | LEL (rat [3]; [18]): 375 mg/kg/day | LOAEL (rat [3]; [18]): 375 mg/kg/day | NEL (rat [3]; [18]): 75 mg/kg/day | NOAEL (rat [3]; [18]): 75 mg/kg/day | LOAEL (rat [4]; systemic / in life observation / body weight / body weight gain + systemic / in life observation / food consumption / food consumption): 1000 mg/kg/day | LEL (rat [4]; [20]): 1000 mg/kg/day | NEL (rat [4]; [20]): 300 mg/kg/day | NOAEL (rat [4]; [20]): 300 mg/kg/day

Cc1ccc(S(=O)(=O)[O-])cc1C.[Na+] [Sodium xylenesulfonate]
LEL (rat [5]; [21]): 60 mg/kg/day | LOAEL (rat [5]; [21]): 120 mg/kg/day | NEL (rat [5]; [21]): < 60 mg/kg/day | NOAEL (rat [5]; systemic / pathology microscopic / skin / hyperplasia + systemic / in life observation / clinical signs / [other]): 60 mg/kg/day | LEL (mouse [6]): 364 mg/kg/day | LOAEL (mouse [6]): 364 mg/kg/day | NEL (mouse [6]): 182 mg/kg/day | NOAEL (mouse [6]): 182 mg/kg/day | NEL (rat [7]; systemic / in life observation / clinical signs / skin discoloration): 800 mg/kg/day | LOAEL (rat [7]; [22]): > 500 mg/kg/day | NOAEL (rat [7]; [22]): ≥ 500 mg/kg/day | LEL (mouse [8]; [21]): 170 mg/kg/day | LOAEL (mouse [8]; [21]): 1300 mg/kg/day | NEL (mouse [8]; [21]): 60 mg/kg/day | NOAEL (mouse [8]; systemic / pathology microscopic / skin / hyperplasia + systemic / in life observation / body weight / body weight gain): 440 mg/kg/day

CC(C)=C1CC[C@@H](C)CC1=O [R-(+)-Pulegone]
LEL (mouse [9]; systemic / organ weight / liver / absolute): 18.8 mg/kg/day | LOAEL (mouse [9]; [23]): > 150 mg/kg/day | NEL (mouse [9]; [23]): 9.38 mg/kg/day | NOAEL (mouse [9]; [23]): ≥ 150 mg/kg/day | LOAEL (rat [10]; systemic / pathology microscopic / kidney / glomerulonephropathy + systemic / pathology microscopic / liver / basophilic focus + systemic / …): 37.5 mg/kg/day | LEL (rat [10]; [24]): 18.8 mg/kg/day | NEL (rat [10]; [24]): < 18.8 mg/kg/day | LOAEL (mouse [11]; [25]): 75 mg/kg/day | NOAEL (mouse [11]; [25]): 37.5 mg/kg/day | LEL (mouse [11]; [26]): 37.5 mg/kg/day | NEL (mouse [11]; [26]): < 37.5 mg/kg/day | LEL (rat [12]; [27]): 9.38 mg/kg/day | NEL (rat [12]; [27]): < 9.38 mg/kg/day | LOAEL (rat [12]; [28]): > 150 mg/kg/day | NOAEL (rat [12]; [28]): ≥ 150 mg/kg/day

— EPA's ToxRefDB 2
